From patent US6962931B2, “Self-emulsifying formulations of cholesteryl ester transfer protein inhibitors” (Pfizer Inc., priority 2001, dated 2005)
Values after ≈ are worked out from the molar mass of the structure shown. Like-named read-outs stand apart in the source and are kept apart here.

Experiment: Microsolubility estimate by repeated addition of vehicle
Assay type: physicochemical
Settings: thermodynamic from solid, read-out: Microsolubility
Method: (§1) For CETP inhibitors where quantities were limited, an estimate of solubility was obtained by addition of vehicle to a known quantity of the compound and mixing in an ultrasonicator bath for 90 minutes, followed by overnight equilibration at ambient temperature. Addition of vehicle was repeated until a solution was achieved.
as §1, with “limited or the samples were amorphous solids,” for “limited,”, “achieved. From the total volume of vehicle added to solubilize the CETP inhibitor compound, the solubility value, or so-called microsolubility, was calculated by the equation: Weight of sample (mgA)/vehicle volume (mL)=Microsolubility (mgA/mL)” for “achieved.”

[1] = Cremophor EL, organic solvent or mixture
[2] = Crodamol GTCC/Capmul MCM/Polysorbate 80 (40/40/20), oil or lipid
[3] = Corn, Safflower, Soybean oils, oil or lipid
[4] = PEG 400, organic solvent or mixture

| Compound | Solubility [1] | Solubility [2] | Solubility (Olive oil, oil or lipid) | Solubility (Sesame oil, oil or lipid) | Solubility (Capmul MCM, oil or lipid) | Solubility [3] | Solubility (Crodamol GTCC, oil or lipid) | Solubility [4] | Solubility (Miglyol 812, oil or lipid) | Solubility (Safflower oil, oil or lipid) | Solubility (Corn oil/Labrafil (80/20), oil or lipid) | Solubility (Corn oil/Polysorbate 80 (80/20), oil or lipid) | Solubility (Peanut oil, oil or lipid) |
| --- | --- | --- | --- | --- | --- | --- | --- | --- | --- | --- | --- | --- | --- |
| COC(=O)N(Cc1cc(C(F)(F)F)cc(C(F)(F)F)c1)[C@H]1CC(C2CC2)N(C(=O)OC(C)C)c2ccc(C(F)(F)F)cc21 (stereo in doubt) [Compound G, [2R,4S] 4-[(3,5-Bis-trifluoromethyl-benzyl)-methoxycarbonyl-amino]-2-cyclopropyl-6-trifluoromethyl-3,4-dihydro-2H-quinoline-1-carboxylic acid isopropyl ester] | > 300 mg/mL | > 300 mg/mL | > 300 mg/mL | > 300 mg/mL |  |  |  |  |  |  |  |  |  |
| COC(=O)N(Cc1cc(C(F)(F)F)cc(C(F)(F)F)c1)[C@@H]1CC(C2CC2)N(C(=O)OC(C)C)c2ccc(C(F)(F)F)cc21 (stereo in doubt) [Compound H, [2S,4R] 4-[(3,5-Bis-trifluoromethyl-benzyl)-methoxycarbonyl-amino]-2-cyclopropyl-6-trifluoromethyl-3,4-dihydro-2H-quinoline-1-carboxylic acid isopropyl ester] | < 160 mg/mL |  | > 300 mg/mL |  | > 300 mg/mL | > 300 mg/mL | > 300 mg/mL | < 160 mg/mL |  |  |  |  |  |
| CCCOC(=O)N1c2ccc(C(F)(F)F)cc2[C@@H](N(Cc2cc(C(F)(F)F)cc(C(F)(F)F)c2)C(C)=O)CC1C1CC1 (stereo in doubt) [Compound M, [2R,4S] 4-[Acetyl-(3,5-bis-trifluoromethyl-benzyl)-amino]-2-cyclopropyl-6-trifluoromethyl-3,4-dihydro-2H-quinoline-1-carboxylic acid propyl ester] |  |  | < 300 mg/mL |  | > 300 mg/mL |  |  |  | > 300 mg/mL | < 300 mg/mL |  |  |  |
| CCCOC(=O)N1c2ccc(C(F)(F)F)cc2[C@@H](N(C=O)Cc2cc(C(F)(F)F)cc(C(F)(F)F)c2)CC1C1CC1 (stereo in doubt) [Compound N, [2R,4S] 4-[(3,5-Bis-trifluoromethyl-benzyl)-formyl-amino]-2-cyclopropyl-6-trifluoromethyl-3,4-dihydro-2H-quinoline-1-carboxylic acid propyl ester] |  |  | > 300 mg/mL |  | > 300 mg/mL |  |  |  | > 300 mg/mL | > 300 mg/mL |  |  |  |
| CCCOC(=O)N1c2ccc(C(F)(F)F)cc2[C@@H](N(Cc2cc(C(F)(F)F)cc(C(F)(F)F)c2)C(=O)OC)C[C@H]1CC [Compound F, [2R,4S] 4-[(3,5-Bis-trifluoromethyl-benzyl)-methoxycarbonyl-amino]-2-ethyl-6-trifluoromethyl-3,4-dihydro-2H-quinoline-1-carboxylic acid propyl ester] |  |  | 303 mg/mL (≈ 493 mM) |  |  |  |  |  | < 100 mg/mL |  |  |  |  |
| CCOC(=O)N1c2cc(C(F)(F)F)ccc2[C@@H](N(Cc2cc(C(F)(F)F)cc(C(F)(F)F)c2)C(=O)OC)C[C@H]1C [Compound I, [2R,4S] 4-[(3,5-Bis-trifluoromethyl-benzyl)-methoxycarbonyl-amino]-2-methyl-7-trifluoromethyl-3,4-dihydro-2H-quinoline-1-carboxylic acid ethyl ester] |  | > 20 mg/mL | < 20 mg/mL | < 20 mg/mL | > 20 mg/mL | < 20 mg/mL | > 20 mg/mL | < 20 mg/mL |  |  | < 20 mg/mL | > 20 mg/mL | < 20 mg/mL |
| CCOC(=O)N1c2cc3c(cc2[C@H](N(Cc2cc(C(F)(F)F)cc(C(F)(F)F)c2)C(=O)OC)C[C@@H]1C)CCC3 [Compound J, [2S,4R] 4-[(3,5-Bis-trifluoromethyl-benzyl)-methoxycarbonyl-amino]-2-methyl-2,3,4,6,7,8-hexahydro-cyclopenta[g]quinoline-1-carboxylic acid ethyl ester] |  | > 100 mg/mL | > 100 mg/mL | > 100 mg/mL | > 100 mg/mL | > 100 mg/mL | > 100 mg/mL | 50 to 100 mg/mL (≈ 89.5 to 179 mM) |  |  |  |  | > 100 mg/mL |
| CCOC(=O)N1c2ccc(C(F)(F)F)cc2[C@@H](N(Cc2cc(C(F)(F)F)cc(C(F)(F)F)c2)C(=O)OC)C[C@H]1C [Compound L, [2R,4S] 4-[(3,5-Bis-trifluoromethyl-benzyl)-methoxycarbonyl-amino]-2-methyl-6-trifluoromethyl-3,4-dihydro-2H-quinoline-1-carboxylic acid ethyl ester] |  |  | < 300 mg/mL |  | > 300 mg/mL |  |  |  | > 300 mg/mL | > 300 mg/mL |  |  |  |
| CCOC(=O)N1c2ccc(C(F)(F)F)cc2[C@@H](N(Cc2cc(C(F)(F)F)cc(C(F)(F)F)c2)C(C)=O)C[C@H]1C [Compound O, [2R,4S] 4-[Acetyl-(3,5-bis-trifluoromethyl-benzyl)-amino]-2-methyl-6-trifluoromethyl-3,4-dihydro-2H-quinoline-1-carboxylic acid ethyl ester] |  |  | < 300 mg/mL |  | > 300 mg/mL |  |  |  | > 300 mg/mL | < 300 mg/mL |  |  |  |
| CCOC(=O)N1c2ccc(C(F)(F)F)cc2[C@@H](N(C=O)Cc2cc(C(F)(F)F)cc(C(F)(F)F)c2)C[C@H]1CC [Compound P, [2R,4S] 4-[(3,5-Bis-trifluoromethyl-benzyl)-formyl-amino]-2-ethyl-6-trifluoromethyl-3,4-dihydro-2H-quinoline-1-carboxylic acid ethyl ester] |  |  | > 300 mg/mL |  | > 300 mg/mL |  |  |  | > 300 mg/mL | < 300 mg/mL |  |  |  |
| CCOC(=O)N1c2ccc(C(F)(F)F)cc2[C@@H](N(C=O)Cc2cc(C(F)(F)F)cc(C(F)(F)F)c2)C[C@H]1C [Compound Q, [2R,4S] 4-[(3,5-Bis-trifluoromethyl-benzyl)-formyl-amino]-2-methyl-6-trifluoromethyl-3,4-dihydro-2H-quinoline-1-carboxylic acid ethyl ester] |  |  | < 300 mg/mL |  | > 300 mg/mL |  |  |  | > 300 mg/mL | < 300 mg/mL |  |  |  |
